In ChEMBL document CHEMBL4842348 (J Med Chem, 2021):

How the values were obtained:
[1] = Oral bioavailability in fasted dog at 1 mg/kg in Imwitor/Tween; type: ADME, organism-based, Canis lupus familiaris; conditions: in vivo
[2] = Drug recovery in bile duct cannulated single po dosed rhesus monkey assessed as recovered parent compound in plasma measured at 2 hrs relative to total recovery; type: ADME, organism-based, Macaca mulatta; conditions: in vivo
[3] = Drug recovery in bile duct cannulated single po dosed rhesus monkey assessed as recovered glucuronide conjugate in feces relative to total recovery; type: ADME, organism-based, Macaca mulatta; conditions: in vivo
[4] = Drug recovery in bile duct cannulated single iv dosed WH rat assessed as recovered parent compound in plasma measure at 24 hrs relative to total recovery; type: ADME, organism-based; conditions: in vivo
[5] = Oral bioavailability in CD1 mouse at 2 mg/kg; type: ADME, organism-based; conditions: in vivo
[6] = Drug recovery in bile duct cannulated single iv dosed WH rat assessed as recovered total feces radioactivity; type: ADME, organism-based; conditions: in vivo
[7] = Drug recovery in bile duct cannulated single iv dosed WH rat assessed as recovered total bile radioactivity; type: ADME, organism-based; conditions: in vivo
[8] = Bioavailability in CD1 mouse at 1 mg/kg, iv and 2 mg/kg, po; type: ADME, organism-based; conditions: in vivo
[9] = AUC (0 to infinitive) in Beagle dog at 2 mg/kg, po; type: ADME, organism-based, Canis lupus familiaris; design: route oral, time infinity, dose 2 mg/kg; conditions: in vivo
[10] = Drug recovery in bile duct cannulated single po dosed rhesus monkey assessed as recovered total urine radioactivity; type: ADME, organism-based, Macaca mulatta; conditions: in vivo
[11] = Half life in lean NFR-transgenic mouse adipose tissue at 10 mg/kg, po qd treated for 40 days; type: ADME, organism-based; conditions: time 40 day
[12] = Volume of distribution at steady state in WH rat at 1 mg/kg, iv; type: ADME, organism-based; conditions: in vivo, read-out: Vdss
[13] = MRT in CD1 mouse at 1 mg/kg, iv and 2 mg/kg, po; type: ADME, organism-based; conditions: in vivo
[14] = Clearance in CD1 mouse at 1 mg/kg, iv and 2 mg/kg, po; type: ADME, organism-based; conditions: in vivo
[15] = Drug recovery in bile duct cannulated single po dosed WH rat assessed as recovered total feces radioactivity; type: ADME, organism-based; conditions: in vivo
[16] = Tmax in WH rat at 2 mg/kg, po; type: ADME, organism-based; conditions: in vivo
[17] = Normalized AUC (0 to 72 hrs) in fasted dog at 1 mg/kg, po in Imwitor/Tween; type: ADME, organism-based, Canis lupus familiaris; conditions: in vivo
[18] = Oral bioavailability in fasted dog at 1 mg/kg in 0.5% methocel; type: ADME, organism-based, Canis lupus familiaris; conditions: in vivo
[19] = Half life in DIO wild type mouse plasma at 10 mg/kg, po qd treated for 40 days; type: ADME, organism-based; conditions: time 40 day
[20] = Cmax in WH rat at 2 mg/kg, po; type: ADME, organism-based; design: route oral, dose 2 mg/kg; conditions: in vivo
[21] = Oral bioavailability in Beagle dog at 2 mg/kg; type: ADME, organism-based, Canis lupus familiaris; conditions: in vivo
[22] = Volume of distribution at steady state in CD1 mouse at 1 mg/kg, iv and 2 mg/kg, po; type: ADME, organism-based; conditions: in vivo, read-out: Vdss
[23] = Drug recovery in bile duct cannulated single po dosed WH rat assessed as recovered glucuronide conjugate in bile relative to total recovery; type: ADME, organism-based; conditions: in vivo
[24] = Oral bioavailability in WH rat at 2 mg/kg; type: ADME, organism-based; conditions: in vivo
[25] = MRT in […] rhesus monkey at 0.5 mg/kg, iv; type: ADME, organism-based, Macaca mulatta; conditions: in vivo
[26] = Half life in NFR-transgenic mouse plasma at 10 mg/kg, po single dose; type: ADME, organism-based
[27] = Drug recovery in bile duct cannulated single iv dosed WH rat assessed as recovered glucuronide conjugate in plasma measure at 2 hrs relative to total recovery; type: ADME, organism-based; conditions: in vivo
[28] = Drug recovery in bile duct cannulated single po dosed WH rat assessed as recovered total urine radioactivity; type: ADME, organism-based; conditions: in vivo
[29] = Drug recovery in bile duct cannulated single po dosed rhesus monkey assessed as recovered total bile radioactivity; type: ADME, organism-based, Macaca mulatta; conditions: in vivo
[30] = AUC (0 to infinitive) in WH rat at 2 mg/kg, po; type: ADME, organism-based; design: route oral, time infinity, dose 2 mg/kg; conditions: in vivo
[31] = Drug recovery in bile duct cannulated single po dosed rhesus monkey assessed as recovered parent compound in feces relative to total recovery; type: ADME, organism-based, Macaca mulatta; conditions: in vivo
[32] = MRT in WH rat at 1 mg/kg, iv; type: ADME, organism-based; conditions: in vivo
[33] = Normalized AUC (0 to 72 hrs) in high fat diet fed dog at 1 mg/kg, po in Imwitor/Tween; type: ADME, organism-based, Canis lupus familiaris; conditions: in vivo
[34] = Half life in DIO wild type mouse adipose tissue at 10 mg/kg, po qd treated for 40 days; type: ADME, organism-based; conditions: time 40 day
[35] = Plasma clearance in Beagle dog at 0.5 mg/kg, iv; type: ADME, organism-based, Canis lupus familiaris
[36] = Terminal half life in DIO NFR-transgenic mouse plasma at 10 mg/kg, po once daily for 14 days; type: ADME, organism-based; conditions: time 14 day, read-out: beta t1/2 (converted)
[37] = Volume of distribution at steady state in rhesus monkey at 0.5 mg/kg, iv; type: ADME, organism-based, Macaca mulatta; conditions: in vivo, read-out: Vdss
[38] = Oral bioavailability in high fat diet fed dog at 1 mg/kg in 0.5% methocel; type: ADME, organism-based, Canis lupus familiaris; conditions: in vivo
[39] = Terminal half life in CD1 mouse at 1 mg/kg, iv; type: ADME, organism-based; conditions: in vivo, read-out: beta t1/2 (converted)
[40] = AUC (0 to infinitive) in CD1 mouse at 2 mg/kg, po; type: ADME, organism-based; design: route oral, time infinity, dose 2 mg/kg; conditions: in vivo
[41] = Drug recovery in bile duct cannulated single po dosed WH rat assessed as recovered parent compound in feces relative to total recovery; type: ADME, organism-based; conditions: in vivo
[42] = Cmax in fasted dog at 1 mg/kg, po in Imwitor/Tween; type: ADME, organism-based, Canis lupus familiaris; design: route oral, dose 1 mg/kg; conditions: in vivo
[43] = Tmax in CD1 mouse at 2 mg/kg, po; type: ADME, organism-based; conditions: in vivo
[44] = Tmax in Beagle dog at 2 mg/kg, po; type: ADME, organism-based, Canis lupus familiaris; conditions: in vivo
[45] = Drug recovery in bile duct cannulated single po dosed WH rat assessed as recovered total bile radioactivity; type: ADME, organism-based; conditions: in vivo
[46] = Drug recovery in bile duct cannulated single po dosed rhesus monkey assessed as recovered glucuronide conjugate in bile relative to total recovery; type: ADME, organism-based, Macaca mulatta; conditions: in vivo
[47] = Drug recovery in bile duct cannulated single iv dosed WH rat assessed as recovered parent compound in feces relative to total recovery; type: ADME, organism-based; conditions: in vivo
[48] = Cmax in Beagle dog at 2 mg/kg, po; type: ADME, organism-based, Canis lupus familiaris; design: route oral, dose 2 mg/kg; conditions: in vivo
[49] = Half life in lean wild type mouse liver at 10 mg/kg, po qd treated for 40 days; type: ADME, organism-based; conditions: time 40 day
[50] = Volume of distribution at steady state in Beagle dog at 0.5 mg/kg, iv; type: ADME, organism-based, Canis lupus familiaris; conditions: in vivo, read-out: Vdss
[51] = Drug recovery in bile duct cannulated single po dosed rhesus monkey assessed as recovered total feces radioactivity; type: ADME, organism-based, Macaca mulatta; conditions: in vivo
[52] = Tmax in rhesus monkey at 2 mg/kg, po; type: ADME, organism-based, Macaca mulatta; conditions: in vivo
[53] = Terminal half life in DIO NFR-transgenic mouse adipose tissue at 10 mg/kg, po once daily for 14 days; type: ADME, organism-based; conditions: time 14 day, read-out: beta t1/2 (converted)
[54] = Half life in lean wild type mouse adipose tissue at 10 mg/kg, po qd treated for 40 days; type: ADME, organism-based; conditions: time 40 day
[55] = Drug recovery in bile duct cannulated single iv dosed WH rat assessed as recovered parent compound in plasma measure at 2 hrs relative to total recovery; type: ADME, organism-based; conditions: in vivo
[56] = Oral bioavailability in rhesus monkey at 2 mg/kg; type: ADME, organism-based, Macaca mulatta; conditions: in vivo
[57] = Cmax in high fat diet fed dog at 1 mg/kg, po in Imwitor/Tween; type: ADME, organism-based, Canis lupus familiaris; design: route oral, dose 1 mg/kg; conditions: in vivo
[58] = Drug recovery in bile duct cannulated single po dosed WH rat assessed as recovered taurine conjugate in bile relative to total recovery; type: ADME, organism-based; conditions: in vivo
[59] = Plasma clearance in WH rat at 1 mg/kg, iv; type: ADME, organism-based
[60] = Half life in DIO wild type mouse liver at 10 mg/kg, po qd treated for 40 days; type: ADME, organism-based; conditions: time 40 day
[61] = Terminal half life in WH rat at 1 mg/kg, iv; type: ADME, organism-based; conditions: in vivo, read-out: beta t1/2 (converted)

bioavailability [1]: 53% | Drug recovery [2]: > 99% | Drug recovery [3]: 5% | Drug recovery [4]: > 99% | bioavailability [5]: 43% | Drug recovery [6]: 15% | Drug recovery [7]: 67% | bioavailability [8]: 43% | AUC(0-inf) [9]: 13 µM·h | Drug recovery [10]: 7% | half-life [11]: 36 h | Vd [12]: 2.4 L/kg | MRT [13]: 6 h | clearance [14]: 2.6 mL/min/kg | Drug recovery [15]: 46% | Tmax [16]: 4 h | AUC/dose [17]: 24 µM·kg·h/mg | bioavailability [18]: 14% | half-life [19]: 67.2 h | Cmax [20]: 400 nM | bioavailability [21]: 14% | Vd [22]: 0.95 L/kg | Drug recovery [23]: > 98% | bioavailability [24]: 65% | MRT [25]: 60 h | half-life [26]: 12 h | Drug recovery [27]: < 4% | Drug recovery [28]: 0% | Drug recovery [29]: > 99% | AUC(0-inf) [30]: 9.7 µM·h | Drug recovery [31]: 95% | MRT [32]: 13 h | AUC/dose [33]: 22 µM·kg·h/mg | half-life [34]: 86.4 h | clearance [35]: 0.52 mL/min/kg | half-life at […] [36]: 3.8 h | Vd [37]: 1.3 L/kg | bioavailability [38]: 9% | half-life [39]: 4.4 h | AUC(0-inf) [40]: 7.9 µM·h | Drug recovery [41]: > 98% | Cmax [42]: 1500 nM | Tmax [43]: 2.7 h | Tmax [44]: 1.7 h | Drug recovery [45]: > 99% | Drug recovery [46]: > 96% | Drug recovery [47]: > 98% | Cmax [48]: 690 nM | half-life [49]: 1.5 h | Vd [50]: 0.54 L/kg | Drug recovery [51]: 60% | Tmax [52]: 6.7 h | half-life at […] [53]: 2.8 h | half-life [54]: 0.8 h | Drug recovery [55]: > 96% | bioavailability [56]: 8.4% | Cmax [57]: 1300 nM | Drug recovery [58]: 0% | clearance [59]: 3.1 mL/min/kg | half-life [60]: 76.8 h | half-life [61]: 8.1 h
SMILES: COc1ncc(-c2ccc(C(=O)O)cc2C)cc1-c1ccc(C(F)(F)F)cc1[C@@H]1CC[C@H]2[C@@H](c3cc(C(F)(F)F)cc(C(F)(F)F)c3)OC(=O)N12
